Laboratory results reported in the kinase profiling compilation of Christmann-Franck et al. (2016).

Tests used:
Assay in all cases: radiometric filter-binding kinase assay, Kinase HotSpot
Settings in all cases: compound 0.5 µM; ATP 10 µM
[1] = biological target: NUAK2 (human) (UniProt Q9H093)
[2] = biological target: STK10 (human) (UniProt O94804)
[3] = biological target: SIK2 (human) (UniProt Q9H0K1)
[4] = biological target: MAP3K8 (human) (UniProt P41279)
[5] = biological target: PDGFRA (human) (UniProt P16234)
[6] = biological target: ROCK1 (human) (UniProt Q13464)
[7] = biological target: LIMK1 (human) (UniProt P53667)
[8] = biological target: EPHA6 (human) (UniProt Q9UF33)
[9] = biological target: STK24 (human) (UniProt Q9Y6E0)
[10] = biological target: PLK2 (human) (UniProt Q9NYY3)
[11] = biological target: MAPK13 (human) (UniProt O15264)
[12] = biological target: WNK3 (human) (UniProt Q9BYP7)
[13] = biological target: TGFBR2 (human) (UniProt P37173)
[14] = biological target: TAOK2 (human) (UniProt Q9UL54)
[15] = biological target: CHEK1 (human) (UniProt O14757)
[16] = biological target: OXSR1 (human) (UniProt O95747)
[17] = biological target: CDK4 CCND1 (human) (UniProt P24385+P11802)
[18] = biological target: NLK (human) (UniProt Q9UBE8)
[19] = biological target: MAP3K11 (human) (UniProt Q16584)
[20] = biological target: JAK1 JH1 catalytic (human) (UniProt P23458)
[21] = biological target: CLK3 (human) (UniProt P49761)
[22] = biological target: TLK2 (human) (UniProt Q86UE8)
[23] = biological target: ALK (human) (UniProt Q9UM73)
[24] = biological target: PRKCH (human) (UniProt P24723)
[25] = biological target: MYO3B (human) (UniProt Q8WXR4)
[26] = biological target: DYRK3 (human) (UniProt O43781)
[27] = biological target: GSG2 (human) (UniProt Q8TF76)
[28] = biological target: CDC42BPB (human) (UniProt Q9Y5S2)
[29] = biological target: MERTK (human) (UniProt Q12866)
[30] = biological target: CAMK2A (human) (UniProt Q9UQM7)
[31] = tested on: PRKCQ (human), Q04759 [P330L]
[32] = biological target: MAPK10 (human) (UniProt P53779)
[33] = biological target: RPS6KA4 KD2 (human) (UniProt O75676)
[34] = biological target: MLTK (human) (UniProt Q9NYL2)
[35] = biological target: SRC (human) (UniProt P12931)
[36] = biological target: BRAF (human) (UniProt P15056)
[37] = biological target: HCK (human) (UniProt P08631)
[38] = biological target: MARK1 (human) (UniProt Q9P0L2)
[39] = biological target: EPHA8 (human) (UniProt P29322)
[40] = biological target: NEK9 (human) (UniProt Q8TD19)
[41] = biological target: IRAK1 (human) (UniProt P51617)
[42] = biological target: ACVRL1 (human) (UniProt P37023)

Sequence of CDC42BPB (human) (Q9Y5S2 whole entry, looked up): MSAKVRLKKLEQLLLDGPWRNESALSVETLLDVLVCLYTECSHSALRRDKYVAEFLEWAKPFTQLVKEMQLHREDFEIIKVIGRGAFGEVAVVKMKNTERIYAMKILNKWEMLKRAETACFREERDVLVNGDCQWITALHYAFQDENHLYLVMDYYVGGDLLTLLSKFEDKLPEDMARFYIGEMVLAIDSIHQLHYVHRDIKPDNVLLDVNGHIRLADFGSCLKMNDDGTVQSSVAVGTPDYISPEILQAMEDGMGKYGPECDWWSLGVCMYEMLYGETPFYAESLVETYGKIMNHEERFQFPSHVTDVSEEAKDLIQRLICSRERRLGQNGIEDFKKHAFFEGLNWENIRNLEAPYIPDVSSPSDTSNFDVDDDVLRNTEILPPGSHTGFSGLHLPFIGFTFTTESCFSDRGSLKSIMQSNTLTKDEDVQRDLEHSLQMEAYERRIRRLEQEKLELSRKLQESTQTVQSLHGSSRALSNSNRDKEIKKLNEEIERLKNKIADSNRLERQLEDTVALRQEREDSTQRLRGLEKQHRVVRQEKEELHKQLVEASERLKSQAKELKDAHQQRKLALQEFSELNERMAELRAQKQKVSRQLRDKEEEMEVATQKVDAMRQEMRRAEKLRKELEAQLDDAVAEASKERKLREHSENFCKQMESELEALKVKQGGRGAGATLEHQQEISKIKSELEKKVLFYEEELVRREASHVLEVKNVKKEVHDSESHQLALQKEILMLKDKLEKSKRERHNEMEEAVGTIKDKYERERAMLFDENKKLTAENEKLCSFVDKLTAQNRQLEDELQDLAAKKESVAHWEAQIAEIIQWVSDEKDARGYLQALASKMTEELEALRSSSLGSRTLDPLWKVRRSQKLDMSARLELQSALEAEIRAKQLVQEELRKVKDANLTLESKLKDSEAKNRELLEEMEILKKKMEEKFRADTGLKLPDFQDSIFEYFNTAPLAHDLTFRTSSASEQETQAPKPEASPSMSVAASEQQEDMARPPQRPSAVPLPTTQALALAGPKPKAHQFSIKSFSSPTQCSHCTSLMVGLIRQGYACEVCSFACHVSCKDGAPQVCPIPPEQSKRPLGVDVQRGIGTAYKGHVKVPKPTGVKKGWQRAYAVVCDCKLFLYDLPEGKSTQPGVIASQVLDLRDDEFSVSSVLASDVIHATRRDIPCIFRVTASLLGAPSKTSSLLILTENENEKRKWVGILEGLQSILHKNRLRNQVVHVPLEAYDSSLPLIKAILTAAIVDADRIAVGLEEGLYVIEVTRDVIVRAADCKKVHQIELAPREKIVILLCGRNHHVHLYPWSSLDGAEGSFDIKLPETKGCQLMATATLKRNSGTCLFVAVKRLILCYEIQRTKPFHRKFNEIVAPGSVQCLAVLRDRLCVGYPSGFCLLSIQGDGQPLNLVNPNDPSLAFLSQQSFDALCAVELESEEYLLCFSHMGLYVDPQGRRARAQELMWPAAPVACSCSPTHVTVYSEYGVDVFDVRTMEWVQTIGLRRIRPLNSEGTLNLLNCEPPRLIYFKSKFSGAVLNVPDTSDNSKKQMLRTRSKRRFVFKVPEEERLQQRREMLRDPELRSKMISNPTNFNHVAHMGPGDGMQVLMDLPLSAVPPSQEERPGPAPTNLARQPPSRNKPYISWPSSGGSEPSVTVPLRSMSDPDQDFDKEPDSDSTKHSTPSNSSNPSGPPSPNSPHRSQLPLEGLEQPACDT
Sequence of MYO3B (human) (Q8WXR4 whole entry, looked up): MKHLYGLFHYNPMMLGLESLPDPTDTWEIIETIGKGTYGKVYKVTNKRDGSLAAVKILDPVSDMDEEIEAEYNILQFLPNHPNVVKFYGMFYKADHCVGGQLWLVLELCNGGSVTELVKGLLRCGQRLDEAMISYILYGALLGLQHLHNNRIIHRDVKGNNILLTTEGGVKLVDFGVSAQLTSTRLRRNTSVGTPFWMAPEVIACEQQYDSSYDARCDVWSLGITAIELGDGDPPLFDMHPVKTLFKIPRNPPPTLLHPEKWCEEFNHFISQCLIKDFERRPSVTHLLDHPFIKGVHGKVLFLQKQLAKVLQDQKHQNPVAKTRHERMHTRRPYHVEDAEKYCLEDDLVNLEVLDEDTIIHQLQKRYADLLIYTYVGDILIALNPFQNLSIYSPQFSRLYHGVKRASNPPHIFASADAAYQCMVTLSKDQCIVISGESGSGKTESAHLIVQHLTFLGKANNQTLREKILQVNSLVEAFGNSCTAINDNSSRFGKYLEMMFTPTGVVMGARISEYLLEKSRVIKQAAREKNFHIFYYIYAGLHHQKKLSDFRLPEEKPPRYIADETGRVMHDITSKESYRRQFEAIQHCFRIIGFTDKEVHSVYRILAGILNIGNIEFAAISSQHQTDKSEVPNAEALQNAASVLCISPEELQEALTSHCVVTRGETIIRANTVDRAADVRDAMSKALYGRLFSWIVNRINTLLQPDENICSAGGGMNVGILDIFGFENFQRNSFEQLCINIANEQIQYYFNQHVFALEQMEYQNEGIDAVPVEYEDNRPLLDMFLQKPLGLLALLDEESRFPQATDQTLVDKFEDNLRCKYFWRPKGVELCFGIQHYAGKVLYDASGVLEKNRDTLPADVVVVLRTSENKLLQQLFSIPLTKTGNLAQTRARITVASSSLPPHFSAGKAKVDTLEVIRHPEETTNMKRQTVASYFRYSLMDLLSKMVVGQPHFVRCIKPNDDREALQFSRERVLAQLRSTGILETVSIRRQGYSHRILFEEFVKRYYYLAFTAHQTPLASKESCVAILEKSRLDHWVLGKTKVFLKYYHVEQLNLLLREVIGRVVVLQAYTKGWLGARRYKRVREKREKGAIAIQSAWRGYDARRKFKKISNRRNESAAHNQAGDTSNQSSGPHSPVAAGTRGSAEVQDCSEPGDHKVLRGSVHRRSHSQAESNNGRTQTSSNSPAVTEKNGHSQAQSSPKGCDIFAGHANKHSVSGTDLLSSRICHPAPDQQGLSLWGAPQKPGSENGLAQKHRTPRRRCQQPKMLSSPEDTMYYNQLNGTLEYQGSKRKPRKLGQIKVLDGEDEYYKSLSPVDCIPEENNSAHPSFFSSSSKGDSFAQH
Sequence of OXSR1 (human) (O95747 whole entry, looked up): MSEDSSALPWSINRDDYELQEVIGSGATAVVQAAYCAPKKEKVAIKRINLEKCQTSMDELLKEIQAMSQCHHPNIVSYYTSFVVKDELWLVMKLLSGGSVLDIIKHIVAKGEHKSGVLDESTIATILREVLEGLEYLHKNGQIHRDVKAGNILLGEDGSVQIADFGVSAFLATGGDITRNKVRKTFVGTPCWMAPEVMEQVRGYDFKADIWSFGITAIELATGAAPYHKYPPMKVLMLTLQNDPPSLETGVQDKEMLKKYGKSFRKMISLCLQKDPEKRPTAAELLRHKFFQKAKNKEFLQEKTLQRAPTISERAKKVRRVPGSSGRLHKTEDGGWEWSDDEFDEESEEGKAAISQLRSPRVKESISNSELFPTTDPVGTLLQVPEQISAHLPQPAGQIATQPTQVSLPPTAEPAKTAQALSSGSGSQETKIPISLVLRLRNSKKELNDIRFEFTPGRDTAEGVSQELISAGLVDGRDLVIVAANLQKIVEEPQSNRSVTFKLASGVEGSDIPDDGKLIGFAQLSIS
Sequence of JAK1 JH1 catalytic (human) (P23458 whole entry, looked up): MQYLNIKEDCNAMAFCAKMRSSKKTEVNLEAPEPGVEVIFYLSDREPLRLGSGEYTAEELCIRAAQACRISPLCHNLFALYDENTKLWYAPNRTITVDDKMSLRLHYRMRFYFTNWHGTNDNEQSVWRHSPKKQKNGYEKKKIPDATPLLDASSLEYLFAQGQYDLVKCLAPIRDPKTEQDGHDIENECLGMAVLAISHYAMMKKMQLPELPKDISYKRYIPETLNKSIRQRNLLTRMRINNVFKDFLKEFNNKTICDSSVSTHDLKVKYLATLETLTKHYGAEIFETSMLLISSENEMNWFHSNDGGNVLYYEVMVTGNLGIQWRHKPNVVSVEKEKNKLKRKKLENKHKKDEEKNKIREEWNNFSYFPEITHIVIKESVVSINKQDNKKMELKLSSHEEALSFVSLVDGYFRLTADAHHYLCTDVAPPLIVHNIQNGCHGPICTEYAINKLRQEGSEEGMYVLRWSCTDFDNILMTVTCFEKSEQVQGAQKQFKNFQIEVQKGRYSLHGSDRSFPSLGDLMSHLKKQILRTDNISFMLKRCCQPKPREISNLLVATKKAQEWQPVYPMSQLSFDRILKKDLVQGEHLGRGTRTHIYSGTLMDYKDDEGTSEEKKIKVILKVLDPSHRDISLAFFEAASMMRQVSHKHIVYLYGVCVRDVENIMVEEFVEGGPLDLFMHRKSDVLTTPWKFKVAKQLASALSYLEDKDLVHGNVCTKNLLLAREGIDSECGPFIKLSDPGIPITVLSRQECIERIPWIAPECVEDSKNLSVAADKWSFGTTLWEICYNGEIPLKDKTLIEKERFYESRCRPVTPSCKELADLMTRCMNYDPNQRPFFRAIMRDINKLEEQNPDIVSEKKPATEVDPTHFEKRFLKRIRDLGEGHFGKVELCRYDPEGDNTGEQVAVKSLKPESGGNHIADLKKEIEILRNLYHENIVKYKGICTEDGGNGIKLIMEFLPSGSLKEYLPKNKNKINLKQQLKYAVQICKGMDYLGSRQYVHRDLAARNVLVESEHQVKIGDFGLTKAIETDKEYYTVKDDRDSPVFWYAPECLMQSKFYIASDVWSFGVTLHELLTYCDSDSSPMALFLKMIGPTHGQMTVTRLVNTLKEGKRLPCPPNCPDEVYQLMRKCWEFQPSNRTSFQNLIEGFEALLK
Sequence of MAPK13 (human) (O15264 whole entry, looked up): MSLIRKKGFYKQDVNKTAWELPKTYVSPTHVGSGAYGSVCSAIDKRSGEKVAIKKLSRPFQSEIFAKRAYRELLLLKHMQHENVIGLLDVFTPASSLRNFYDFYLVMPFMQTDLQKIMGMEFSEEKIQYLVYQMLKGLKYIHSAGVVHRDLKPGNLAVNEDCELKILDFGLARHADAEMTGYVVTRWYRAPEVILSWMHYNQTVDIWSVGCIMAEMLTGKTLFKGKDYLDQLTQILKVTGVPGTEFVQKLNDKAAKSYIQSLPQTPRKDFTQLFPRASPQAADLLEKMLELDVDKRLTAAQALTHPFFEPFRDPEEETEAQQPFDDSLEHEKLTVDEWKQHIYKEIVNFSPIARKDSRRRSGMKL

## c1ccc2c(-c3ccncc3)c[nH]c2c1
[1]
  residual activity: 136%
[2]
  residual activity: 93.7%
[3]
  residual activity: 90.5%
[4]
  residual activity: 99%
[5]
  residual activity: 95%
[6]
  residual activity: 84.2%
[7]
  residual activity: 92%
[8]
  residual activity: 104%
[9]
  residual activity: 93.5%
[10]
  residual activity: 99.9%
[11]
  residual activity: 123%
[12]
  residual activity: 100%
[13]
  residual activity: 119%
[14]
  residual activity: 92.1%
[15]
  residual activity: 104%
[16]
  residual activity: 97.2%
[17]
  residual activity: 112%
[18]
  residual activity: 95.1%
[19]
  residual activity: 95.2%
[20]
  residual activity: 109%
[21]
  residual activity: 92.6%
[22]
  residual activity: 95.8%
[23]
  residual activity: 106%
[24]
  residual activity: 84.9%
[25]
  residual activity: 96.4%
[26]
  residual activity: 101%
[27]
  residual activity: 62.3%
[28]
  residual activity: 104%
[29]
  residual activity: 93%
[30]
  residual activity: 104%
[31]
  residual activity: 125%
[32]
  residual activity: 102%
[33]
  residual activity: 91%
[34]
  residual activity: 102%
[35]
  residual activity: 100%
[36]
  residual activity: 94%
[37]
  residual activity: 99.5%
[38]
  residual activity: 94.5%
[39]
  residual activity: 101%
[40]
  residual activity: 101%
[41]
  residual activity: 127%
[42]
  residual activity: 100%

## CO[C@@H]1[C@H](N(C)C(=O)c2ccccc2)C[C@H]2O[C@]1(C)n1c3ccccc3c3c4c(c5c6ccccc6n2c5c31)C(=O)NC4
[1]
  residual activity: 26.2%
[2]
  residual activity: 19.3%
[4]
  residual activity: 99.6%
[5]
  residual activity: 30%
[6]
  residual activity: 85.3%
[7]
  residual activity: 19.6%
[8]
  residual activity: 79.5%
[9]
  residual activity: 39.1%
[10]
  residual activity: 97.5%
[11]
  residual activity: 104%
[12]
  residual activity: 91.4%
[13]
  residual activity: 99.1%
[14]
  residual activity: 86.2%
[15]
  residual activity: 53%
[16]
  residual activity: 98.2%
[18]
  residual activity: 96.9%
[19]
  residual activity: 1.38%
[20]
  residual activity: 16.3%
[21]
  residual activity: 89.6%
[22]
  residual activity: 75%
[23]
  residual activity: 49.2%
[24]
  residual activity: 20.4%
[25]
  residual activity: 53.7%
[26]
  residual activity: 98.5%
[27]
  residual activity: 70.2%
[28]
  residual activity: 95.9%
[29]
  residual activity: 78.7%
[30]
  residual activity: 36.8%
[32]
  residual activity: 98.9%
[33]
  residual activity: 16.8%
[34]
  residual activity: 94.2%
[35]
  residual activity: 39.6%
[36]
  residual activity: 106%
[37]
  residual activity: 14.9%
[38]
  residual activity: 4.09%
[39]
  residual activity: 94.1%
[40]
  residual activity: 64.4%
[41]
  residual activity: 86.3%
[42]
  residual activity: 94.3%

## O=C1Nc2ccc(Br)cc2/C1=C\c1cc2c([nH]1)CCCC2
[1]
  residual activity: 133%
[2]
  residual activity: 65.5%
[3]
  residual activity: 92.7%
[4]
  residual activity: 105%
[5]
  residual activity: 76.2%
[6]
  residual activity: 98.8%
[7]
  residual activity: 83%
[8]
  residual activity: 89.2%
[9]
  residual activity: 94.2%
[10]
  residual activity: 102%
[11]
  residual activity: 100%
[12]
  residual activity: 93.8%
[13]
  residual activity: 101%
[14]
  residual activity: 89.4%
[15]
  residual activity: 81.8%
[16]
  residual activity: 96.7%
[17]
  residual activity: 97.9%
[19]
  residual activity: 16.8%
[20]
  residual activity: 99.3%
[21]
  residual activity: 101%
[22]
  residual activity: 101%
[23]
  residual activity: 88.5%
[24]
  residual activity: 97.4%
[25]
  residual activity: 55.1%
[26]
  residual activity: 94%
[27]
  residual activity: 88%
[28]
  residual activity: 114%
[29]
  residual activity: 81.2%
[30]
  residual activity: 93.3%
[31]
  residual activity: 98.4%
[32]
  residual activity: 98.7%
[33]
  residual activity: 94.2%
[34]
  residual activity: 87.7%
[35]
  residual activity: 88.8%
[36]
  residual activity: 92.5%
[37]
  residual activity: 88.5%
[38]
  residual activity: 69%
[39]
  residual activity: 94.5%
[40]
  residual activity: 85.6%
[41]
  residual activity: 97%
[42]
  residual activity: 103%

## O=C1C(Cl)=C(N2C(=O)CCC2=O)C(=O)c2ccccc21
[1]
  residual activity: 86.7%
[3]
  residual activity: 92.8%
[4]
  residual activity: 91.8%
[5]
  residual activity: 109%
[6]
  residual activity: 106%
[7]
  residual activity: 92.5%
[8]
  residual activity: 89.5%
[9]
  residual activity: 87%
[10]
  residual activity: 96%
[11]
  residual activity: 106%
[12]
  residual activity: 96.4%
[13]
  residual activity: 130%
[14]
  residual activity: 99.2%
[15]
  residual activity: 111%
[16]
  residual activity: 108%
[17]
  residual activity: 103%
[18]
  residual activity: 105%
[19]
  residual activity: 102%
[20]
  residual activity: 107%
[21]
  residual activity: 114%
[22]
  residual activity: 117%
[23]
  residual activity: 88.5%
[24]
  residual activity: 93.1%
[25]
  residual activity: 112%
[26]
  residual activity: 95.4%
[27]
  residual activity: 101%
[28]
  residual activity: 98.6%
[29]
  residual activity: 90.3%
[30]
  residual activity: 89.6%
[31]
  residual activity: 114%
[32]
  residual activity: 93.6%
[33]
  residual activity: 115%
[34]
  residual activity: 97.9%
[35]
  residual activity: 95.1%
[36]
  residual activity: 96.3%
[37]
  residual activity: 94.2%
[38]
  residual activity: 99.3%
[39]
  residual activity: 107%
[40]
  residual activity: 98.3%
[41]
  residual activity: 101%
[42]
  residual activity: 105%
